# Experimental data as given in patent US20240408068A1, “Helicase Primase Inhibitors For Treating Cancer In A Combination Therapy With Oncolytic Viruses” (priority 2018, published 2024).
# Assays:
# [1] = test system: HSV-1; assay: Survival of mice in first oHSV experiment; format: in vivo, Balbc/j mice; conditions: high dose HSV group subsequently treated with compound
# Description: Pharmacological animal groups (8 animal per group, 64 animals in total) were organized as such: • 1. Control virus-untreated group: test compound vehicle (200 μL, 5% DMSO; 0.5% hydroxypropylmethylcellulose (HPMC) in PBS) oral gavage (20 gauge needle standard suspension applicator), once a day, for 10 days and starting 72 h after virus injection for the other groups. • 2. Control virus vehicle-treated group: 50 μL of virus vehicle, intratumoral injection when tumors reached an average volume of app. 40 mm^3, with test compound vehicle, oral gavage, once a day, for 10 days and starting 72 h after vehicle virus injection. • 3. HSV-1 (quantity 1; 5×10^6 pfu)-treated group: 50 μL of HSV-1 (5×10^6), intratumoral injection when tumors reached an average volume of app. […] HSV-1 (quantity 2; 1×10^8 pfu)-treated group: 100 μL of HSV-1 (1×10^8) intratumoral injection when tumors reached an average volume of app. […] HSV-1 (quantity 1; 5×10^6 pfu)-test compound-treated group: 50 μL of HSV-1 (5×10^6), intratumoral injection when tumors reached an average volume of app. […] HSV-1 (quantity 2; 1×10^8 pfu)-test compound-treated group: 100 μL of HSV-1 (1×10^8), intratumoral injection when tumors reached an average volume of app. […]
# As previously mentioned, tumor volume and body weight of the animals were measured and recorded three times per week. […]
# [2] = test system: HSV-1 ACV resistant; assay: In vitro activity, HSV-1 ACV resistant; format: cell-based; conditions: Human alphaherpesvirus 1
# Description: The in vitro activity of the new compounds was measured as described in WO2017/174640 and in WO2019/068817.
structure (smiles),measurement,setting,value
"Cc1nc(N(C)C(=O)Cc2ccc(-c3cc(F)ccc3F)cc2)sc1[S@@](C)(=N)=O [Example 7(−), (−)-(S)-2-(2′,5′-Difluoro-[1,1′-biphenyl]-4-yl)-N-methyl-N-(4-methyl-5-(S-methylsulfonimidoyl)thiazol-2-yl)acetamide]",rescue of mice from virus-induced death,[1],the mice can be rescued
same,IC50,[2],10 to 50 nM
